In PMC8112869, “Therapeutic inhibition of keratinocyte TRPV3 sensory channel by local anesthetic dyclonine” (eLife, 2021):

What was measured:
Type in all cases: cell-based
[1] = target: frog TRPV3 (fTRPV3) (Xenopus tropicalis, UniProt F6UZP3); experiment: Whole-cell recording of 2-APB-evoked currents in fTRPV3-expressing HEK 293T cells
From the text: (§1) The WT mouse TRPV3 (mTRPV3), human TRPV3 (hTRPV3), rat TRPV1, rat TRPV2, rat TRPM8, and mouse TRPA1 cDNAs were generously provided by Dr. Feng Qin (State University of New York at Buffalo, Buffalo, USA). The GFP-mTRPV3 WT and the mutants (mTRPV3-G573S and mTRPV3-G573C) in pcDNA4/TO vector were gifts from Dr. Michael X Zhu (The University of Texas Health Science Center at Houston, Houston, USA). The WT fTRPV3 was kindly provided by Dr. Makoto Tominaga (Department of Physiological Sciences, SOKENDAI, Okazaki, Japan). All mutations were made using the overlap-extension polymerase chain reaction method as previously described ([Tian et al., 2019]). The resulting mutations were then verified by DNA sequencing. […]
(§2) Conventional whole-cell and excised patch-clamp recording methods were used. […] For a subset of recordings, currents were amplified using an Axopatch 200B amplifier (Molecular Devices, Sunnyvale, CA) and recorded through a BNC-2090/MIO acquisition system (National Instruments, Austin, TX) using QStudio developed by Dr. Feng Qin at State University of New York at Buffalo. […] As determined by the conductance tests, the solution around a patch under study was fully controlled by the application of a flow rate of 100 μl/min or greater. […]

[2] = target: T1, TRPV3 I674A (Mus musculus, UniProt Q8K424, I674A); experiment: Whole-cell recording of TRPV3 mutant I674A in HEK 293T cells; conditions: 2-APB (1 mM)-evoked, –60 mV, read-out: IC50 for inhibition of TRPV3 mutant
T1 construct: expressed in transfected cells; host or cells: HEK 293T
T1 sequence (Q8K424 whole entry I674A): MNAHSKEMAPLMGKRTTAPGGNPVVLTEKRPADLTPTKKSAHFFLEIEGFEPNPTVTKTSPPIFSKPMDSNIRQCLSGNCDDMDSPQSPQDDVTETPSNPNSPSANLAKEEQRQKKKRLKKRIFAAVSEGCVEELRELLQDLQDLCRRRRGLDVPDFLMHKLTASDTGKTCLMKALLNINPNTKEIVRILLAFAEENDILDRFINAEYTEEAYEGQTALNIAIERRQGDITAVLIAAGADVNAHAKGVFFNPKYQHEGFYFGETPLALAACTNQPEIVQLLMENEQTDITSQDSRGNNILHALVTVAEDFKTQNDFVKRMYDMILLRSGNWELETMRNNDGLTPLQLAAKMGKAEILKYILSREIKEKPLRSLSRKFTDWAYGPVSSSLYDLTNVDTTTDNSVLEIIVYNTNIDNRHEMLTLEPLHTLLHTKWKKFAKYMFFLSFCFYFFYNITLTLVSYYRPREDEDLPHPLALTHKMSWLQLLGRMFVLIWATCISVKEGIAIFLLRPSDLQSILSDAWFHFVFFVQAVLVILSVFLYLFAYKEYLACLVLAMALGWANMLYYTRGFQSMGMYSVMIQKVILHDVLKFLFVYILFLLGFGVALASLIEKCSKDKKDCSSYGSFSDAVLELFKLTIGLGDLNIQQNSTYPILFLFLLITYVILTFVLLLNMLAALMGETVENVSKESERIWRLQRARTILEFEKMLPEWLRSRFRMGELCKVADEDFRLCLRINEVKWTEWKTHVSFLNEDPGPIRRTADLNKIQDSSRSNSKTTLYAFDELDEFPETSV
From the text: as §1, §2

[3] = target: T2, TRPV3 N643A (Mus musculus, UniProt Q8K424, N643A); experiment: Whole-cell recording of TRPV3 mutant N643A in HEK 293T cells; conditions: 2-APB (1 mM)-evoked, –60 mV, read-out: IC50 for inhibition of TRPV3 mutant
T2 construct: expressed in transfected cells; host or cells: HEK 293T
T2 sequence (Q8K424 whole entry N643A): as the sequence (Q8K424 whole entry I674A) above, with N643A, A674I counted along it
From the text: as §1, §2

Sequence of frog TRPV3 (fTRPV3) (F6UZP3 entry or part of it): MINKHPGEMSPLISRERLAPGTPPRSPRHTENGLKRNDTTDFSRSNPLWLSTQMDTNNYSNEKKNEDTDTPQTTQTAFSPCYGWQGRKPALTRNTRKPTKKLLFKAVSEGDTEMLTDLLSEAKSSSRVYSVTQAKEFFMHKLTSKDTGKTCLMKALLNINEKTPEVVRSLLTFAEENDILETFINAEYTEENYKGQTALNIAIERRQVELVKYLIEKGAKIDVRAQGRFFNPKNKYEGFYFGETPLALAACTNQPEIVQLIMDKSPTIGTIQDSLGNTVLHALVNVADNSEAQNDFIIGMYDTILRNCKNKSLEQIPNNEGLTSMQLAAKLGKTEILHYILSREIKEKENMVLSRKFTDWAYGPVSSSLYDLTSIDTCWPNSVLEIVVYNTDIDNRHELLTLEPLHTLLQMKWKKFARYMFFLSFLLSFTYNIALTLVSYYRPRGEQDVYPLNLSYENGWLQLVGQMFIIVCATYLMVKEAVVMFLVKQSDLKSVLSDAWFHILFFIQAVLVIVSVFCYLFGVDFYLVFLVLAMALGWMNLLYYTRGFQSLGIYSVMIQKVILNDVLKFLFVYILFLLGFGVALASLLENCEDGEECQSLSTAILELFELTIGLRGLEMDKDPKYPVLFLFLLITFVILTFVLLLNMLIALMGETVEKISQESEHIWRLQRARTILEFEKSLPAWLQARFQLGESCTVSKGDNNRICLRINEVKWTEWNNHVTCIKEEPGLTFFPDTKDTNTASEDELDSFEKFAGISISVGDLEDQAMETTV

Hill coefficient nH [1]: 1.6 ± 0.34
IC50 ([1]; 3 mM 2-APB-evoked, –60 mV, read-out: IC50 on inhibition of fTRPV3 currents): 12.3 µM
IC50 [2]: 15.1 ± 2.1 µM
IC50 [3]: 37.7 ± 5.1 µM
SMILES: CCCCOc1ccc(C(=O)CCN2CCCCC2)cc1 [dyclonine]
